{"source": "paper PMC10787398", "about": "“Simultaneous determination of colistin sulfate and tigecycline in human plasma by liquid chromatography-tandem mass spectrometry method” (BMC Chemistry, 2024)", "key": {"[1]": {"assay": "Plasma trough and peak concentrations in patients on intravenous polymyxin and tigecycline (HPLC-MS/MS)", "conditions": "human, in vivo, iv, iv", "excerpt": "Plasma samples were collected from patients receiving simultaneous intravenous polymyxin and tigecycline treatment. Inclusion criteria: ① Patients receiving simultaneous intravenous polymyxin and tigecycline treatment; ② Age ≥ 18 years; ③ Patients who consent to the monitoring of polymyxin and tigecycline blood drug concentrations during treatment. Exclusion criteria: ① Pregnant or lactating women; ② Treatment duration < 3 days; ③ Local administration; ④ Blood dialysis treatment. Once the blood drug concentration reached a steady state, 3 ml of venous blood was collected before and 30 min after the seventh administration to measure the peak and trough concentrations. This study was conducted with approval from the Ethics Committee of Second Hospital of Hebei Medical University (2020-R551). This study was conducted in accordance with the declaration of Helsinki.\nTwo hundred microliters of the plasma sample were adopted, with 20 µL of the internal standard added, and it was vortexed for 20 s. Two hundred microliters of 5% trichloroacetic acid was added for acidification and vortexed for 10 s. Two hundred microliters of methanol was added for extraction, vortexed for 2 min, and centrifuged at 10,900 r/min for 5 min. Two hundred microliters of the supernatant were aspirated into the injection bottle, and 10 µL of the sample was injected for the HPLC–MS/MS analysis.\nAll patients received an initial dose of 100 mg and a maintenance dose of 50 mg q12h for tigecycline. Three milliliters of venous blood were collected before and after the seventh administration to measure the peak and trough concentrations of the drugs."}, "[2]": {"assay": "Stability of analytes in spiked plasma samples under storage conditions", "format": "in vitro ADME, human", "conditions": "for Measured value, Stored at -80℃ for 7 days / Measured value, Automatic sampler 15℃ for 24 h / Measured value, Freeze-thaw for 3 cycles / Measured value, At 4℃ for 12 h / Measured value, At room temperature for 6 h: HPLC-MS/MS, n = 5; for Measured value, Automatic sampler 15℃ for 24 h: automatic sampler 15 ℃ 24 h; for Measured value, Freeze-thaw for 3 cycles: frozen at -80 °C and thawed at room temperature; for Measured value, At 4℃ for 12 h: refrigerator 4 °C 12 h", "procedure": "Plasma samples with low, medium, and high mass concentrations were prepared (the mass concentrations of colistin sulfate were 0.1, 1, and 8 µg/mL, respectively, and those of tigecycline were 0.05, 0.5, and 4 µg/mL, respectively). Five replicates of each concentration were prepared and placed in a refrigerator at 4 °C for 12 h, at room temperature for 6 h, and in an automatic sampler at 15 ℃ for 24 h. The samples were, on three occasions, frozen at − 80 °C and thawed at room temperature, and then placed in a − 80 °C refrigerator for seven days. The concentrations and RSDs of colistin sulfate and tigecycline in the plasma samples were calculated based on the accompanying standard curve of the day to evaluate their stabilities."}, "[3]": {"conditions": "within 8 h after administration; no reference given; cited from earlier work", "excerpt": "The PK process of the drug in the body is often affected in patients with serious diseases accompanied by microcirculation disorders, hypoproteinemia, liver and kidney insufficiency, and other special pathophysiological states. Large fluctuations in plasma drug concentrations are commonly observed in these cases. TDM can aid in the optimization of administration dosage, individualized dosing, and anti-infective efficacy. Since colistin sulfate has not undergone modern drug development procedures, the current pharmacokinetic data remain unclear, and the plasma concentration is closely correlate ..."}, "[4]": {"conditions": "plasma QC high, nominal colistin sulfate 8 µg/mL, tigecycline 4 µg/mL"}, "[5]": {"conditions": "plasma QC low, nominal colistin sulfate 0.1 µg/mL, tigecycline 0.05 µg/mL"}, "[6]": {"conditions": "plasma QC medium, nominal colistin sulfate 1 µg/mL, tigecycline 0.5 µg/mL"}}, "note": "Where a name gives a salt, the structure may show the parent alone. Where a SMILES comes first, the peptide text is derived from it. Bridges are numbered along the chain shown (N, C = ends). [ ]: non-standard residue; d: D form. The star is where a group is joined. X1 = CC[C@H](C)CCCCC(=O)*; Dab = NCC[C@H](N)C(=O)O"}
{"smiles": "CC[C@H](C)CCCCC(=O)N[C@@H](CCN)C(=O)N[C@H](C(=O)N[C@@H](CCN)C(=O)N[C@H]1CCNC(=O)[C@H]([C@@H](C)O)NC(=O)[C@H](CCN)NC(=O)[C@H](CCN)NC(=O)[C@H](CC(C)C)NC(=O)[C@@H](CC(C)C)NC(=O)[C@H](CCN)NC1=O)[C@@H](C)O", "note": "[Colistin sulfate, colistin sulfate] (X1-[Dab]T[Dab][Dab][Dab][dL]L[Dab][Dab]T; lactam 4-C)", "values": [{"measurement": "level at 0.5 h", "setting": "[1]; both, peak concentration of colistin sulfate, range over patients, 12 adult patients, steady state, after 7th administration, plasma, HPLC-MS/MS", "value": "890 to 4560", "unit": "ng/mL"}, {"measurement": "Cmax", "setting": "[1]; female, 500000 IU", "value": 890, "unit": "ng/mL"}, {"measurement": "Measured value, Stored at -80℃ for 7 days", "setting": "[2]; plasma QC high, nominal colistin sulfate 8 µg/mL, tigecycline 4 µg/mL, -80 °C 7 days", "value": "8.30 ± 0.32", "unit": "µg/mL"}, {"measurement": "Measured value, Automatic sampler 15℃ for 24 h", "setting": "[2]; [4]", "value": "8.17 ± 0.19", "unit": "µg/mL"}, {"measurement": "Measured value, Freeze-thaw for 3 cycles", "setting": "[2]; [4]", "value": "8.70 ± 0.54", "unit": "µg/mL"}, {"measurement": "Measured value, At 4℃ for 12 h", "setting": "[2]; [4]", "value": "8.23 ± 0.61", "unit": "µg/mL"}, {"measurement": "Measured value, At room temperature for 6 h", "setting": "[2]; plasma QC high, nominal colistin sulfate 8 µg/mL, tigecycline 4 µg/mL, room temperature 6 h", "value": "8.26 ± 0.30", "unit": "µg/mL"}, {"measurement": "Measured value, Stored at -80℃ for 7 days", "setting": "[2]; plasma QC low, nominal colistin sulfate 0.1 µg/mL, tigecycline 0.05 µg/mL, -80 °C 7 days", "value": "0.10 ± 0.00", "unit": "µg/mL"}, {"measurement": "Measured value, Automatic sampler 15℃ for 24 h", "setting": "[2]; [5]", "value": "0.10 ± 0.00", "unit": "µg/mL"}, {"measurement": "Measured value, Freeze-thaw for 3 cycles", "setting": "[2]; [5]", "value": "0.09 ± 0.00", "unit": "µg/mL"}, {"measurement": "Measured value, At 4℃ for 12 h", "setting": "[2]; [5]", "value": "0.09 ± 0.01", "unit": "µg/mL"}, {"measurement": "Measured value, At room temperature for 6 h", "setting": "[2]; plasma QC low, nominal colistin sulfate 0.1 µg/mL, tigecycline 0.05 µg/mL, room temperature 6 h", "value": "0.10 ± 0.00", "unit": "µg/mL"}, {"measurement": "Measured value, Stored at -80℃ for 7 days", "setting": "[2]; plasma QC medium, nominal colistin sulfate 1 µg/mL, tigecycline 0.5 µg/mL, -80 °C 7 days", "value": "0.98 ± 0.09", "unit": "µg/mL"}, {"measurement": "Measured value, Automatic sampler 15℃ for 24 h", "setting": "[2]; [6]", "value": "0.93 ± 0.01", "unit": "µg/mL"}, {"measurement": "Measured value, Freeze-thaw for 3 cycles", "setting": "[2]; [6]", "value": "1.04 ± 0.04", "unit": "µg/mL"}, {"measurement": "Measured value, At 4℃ for 12 h", "setting": "[2]; [6]", "value": "0.93 ± 0.04", "unit": "µg/mL"}, {"measurement": "Measured value, At room temperature for 6 h", "setting": "[2]; plasma QC medium, nominal colistin sulfate 1 µg/mL, tigecycline 0.5 µg/mL, room temperature 6 h", "value": "1.00 ± 0.05", "unit": "µg/mL"}, {"measurement": "stability under the above conditions", "setting": "[2]; plasma samples, 4 °C 12 h, room temperature 6 h, autosampler 15 ℃ 24 h, 3 freeze-thaw cycles, -80 °C 7 days", "value": "good stability"}, {"measurement": "administered dose excreted in the urine", "setting": "[3]", "value": 40, "unit": "%"}]}
